Non-standard residues stand in square brackets, D forms with d. Residues, ends and D or L forms follow the SMILES beside them. pGlu = O=C1CC[C@@H](C(=O)O)N1
What was measured:
[1] = target: thalidomide binding domain (TBD) of cereblon (Homo sapiens, UniProt Q96SW2); experiment: Cereblon binding (DSF, FP/FI); settings: for inhibition at 200 µM: read-out: Cereblon Binding (≥50% inhibition at 200 μM)
Procedure: Several libraries are available for screening inhibitors. Virtual analysis was formulated and then theoretical design of chemical test kit and virtual screen of test kit were carried out. Physical binding studies were also completed for the initial compounds using DSF and FP assays after they are fully tested. TEST KITs that represent the compounds identified from each of the available chemical libraries based on virtual chemical structures were also made.

[2] = test system: IL-2; experiment: IL-2 relative to DMSO; type: cell-based
[3] = Viability relative to DMSO; type: cell-based; design: concentration or dose not given beside the values

Chain of thalidomide binding domain (TBD) of cereblon (Q96SW2 318-426 limits assumed): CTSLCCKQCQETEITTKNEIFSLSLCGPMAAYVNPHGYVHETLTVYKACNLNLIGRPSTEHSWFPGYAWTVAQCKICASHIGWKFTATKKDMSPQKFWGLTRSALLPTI

Structure (SMILES)	Cereblon Binding (≥50% inhibition at 200 μM) [1]	IL-2 (%) (Relative to DMSO) [2]	viability [3] [%]	inhibition at 200 µM [1] [%]
O=c1ccn(Cc2ccccc2)c(=O)[nH]1	Yes*	88.2	79.5	
O=C(NCCn1ccc(=O)[nH]c1=O)c1ccccc1		124.5	84.2	> 50
O=C1CCC(NC(=O)CCNS(=O)(=O)c2c(F)cccc2F)C(=O)N1 (stereo not shown)		120.1	99.4	> 50
O=C1CCC(NCc2ccccc2)C(=O)N1 (stereo not shown)		40.4	98	> 50
Nc1ccc2c(c1)CCN(C1CCC(=O)NC1=O)C2 (stereo not shown)	Yes*	54.6	95.8	
CN(Cc1ccc2c(c1)OCO2)C1CCC(=O)NC1=O (stereo not shown)		43	106	> 50
O=C1CCC(NC(=O)c2ccccc2NC(=O)CCl)C(=O)N1 (stereo not shown)		40.3	69.9	> 50
CCN(Cc1ccccc1)C1CCC(=O)NC1=O (stereo not shown)		32.1	99.1	> 50
Cc1nc2cccc(N)c2c(=O)n1C1CCC(=O)NC1=O (stereo not shown)		283.4	84.4	> 50
CN1C(=O)CCC(N2Cc3c(N)cccc3C2=O)C1=O.Cl (stereo not shown)	No	199.2	106	
O=C1CCC(NCc2ccccn2)C(=O)N1 (stereo not shown)		7.8	84.9	> 50
Nc1cccc2c1CN(C1CCC(=O)NC1=O)C2=O (stereo not shown) [drawing 75]			99.9	
O=C1CCC(N2CCc3ccccc3C2)C(=O)N1 (stereo not shown)	Yes*	105.4	99.5	
O=C1CCC(=O)N1		199.7	75.3	> 50
Nc1ccc(Cl)cc1C(=O)NCCn1ccc(=O)[nH]c1=O	Yes*	51.2	74.8	
O=C1CCC(N2Cc3ccccc3C2)C(=O)N1 (stereo not shown)	Yes*	69.0	84.8	
O=C1CCC(N2CCC(c3ccccc3)CC2)C(=O)N1 (stereo not shown)		41.5	100	> 50
Nc1cccc2c1C(=O)N(C1CC(=O)NC1=O)C2=O (stereo not shown)	No	193.8	97	
O=C1CCC(N2CCc3ccc(Cl)cc3C2)C(=O)N1 (stereo not shown)	Yes*	69.9	93.2	
O=C1c2ccccc2C(=O)N1c1cc[nH]c(=O)c1	No	123.3	95.3	
CNc1ccccc1C(=O)NCCn1ccc(=O)[nH]c1=O		158.7	97	> 50
Nc1ccccc1S(=O)(=O)NC1CCC(=O)NC1=O (stereo not shown)	Yes*	54.7	99.1	
O=C1CCC(NS(=O)(=O)c2ccc3c(c2)OCCCO3)C(=O)N1 (stereo not shown)	Yes*	61.6	73.6	
O=C1CCC(N2CCCC(c3ccccc3)C2)C(=O)N1 (stereo not shown)	Yes*	45.3	92.1	
Nc1ccc(Cl)cc1C(=O)NCCN1CCC(=O)NC1=O		20.6	78.8	> 50
NC(=O)[C@H](Cc1ccccc1)NC(=O)[C@@H]1CCC(=O)N1	No	39.8	74.7	

Structure (SMILES)	Cereblon Binding (≥50% inhibition at 200 μM) [1]	IL-2 (%) (Relative to DMSO) [2]	viability [3] [%]	inhibition at 200 µM [1] [%]
C=CCCCCCCCCC(=O)NC1CCC(=O)NC1=O (stereo not shown)		15.6	82.3	> 50
CC(C)C[C@H](NC(=O)[C@@H]1CCC(=O)N1)C(N)=O ([pGlu]-Leu-NH2)	No	24.6	110	
Nc1ccccc1S(=O)(=O)NCCn1ccc(=O)[nH]c1=O	No	31.8	74.6	
Nc1cccc2c1CN([C@H]1CC(=O)NC1=O)C2=O	No	124.9		
CC(C)[C@H](NC(=O)c1ccccc1)C(=O)NC1CCC(=O)NC1=O (stereo partly shown)	Yes*	84.5	99.1	
O=C1CC(N2C(=O)c3ccccc3C2=O)C(=O)N1 (stereo not shown)	No	10.9	75.3	
Nc1cccc(S(=O)(=O)NC2CCC(=O)NC2=O)c1 (stereo not shown)		127.0	99.7	> 50
O=C1CCC(N2CCc3ccc([N+](=O)[O-])cc3C2)C(=O)N1 (stereo not shown)	Yes*	23.0	84.2	
COc1ccc2c(c1)CCN(C1CCC(=O)NC1=O)C2 (stereo not shown)	Yes*	79.0	74.4	
CCNc1cccc(S(=O)(=O)NC2CCC(=O)NC2=O)c1 (stereo not shown)	Yes*	124.4	100	
CC(=O)N[C@H](C(=O)NC1CCC(=O)NC1=O)C(C)C (stereo partly shown)	DSF (check) FI (borderline)	126.4	79.4	
O=c1ccn(CCCc2ccccc2)c(=O)[nH]1	Yes*	99.7	93.1	
Nc1cc(Cl)ccc1C(=O)NCCn1ccc(=O)[nH]c1=O	Yes*	67.3	70.4	
CNc1ccccc1C(=O)NCCN1CCC(=O)NC1=O	Yes*	167.5	101	
O=C1CCC(NCc2ccco2)C(=O)N1 (stereo not shown)		136.9	95.9	> 50
O=C1CCC(NC(=O)CCNS(=O)(=O)c2ccccc2)C(=O)N1 (stereo not shown)		32.7	77.2	> 50
O=C1CCC(N2CCc3ccc(O)cc3C2)C(=O)N1 (stereo not shown)	Yes*	32.2	102	
O=C1CCC(N2CCc3ccccc32)C(=O)N1 (stereo not shown)			98.7	
COC(=O)[C@H](C)NC(=O)[C@@H]1CCC(=O)N1 ([pGlu]-Ala-OMe)	No	11.7	101	
O=C1CC(N2C(=O)c3cccc([N+](=O)[O-])c3C2=O)C(=O)N1 (stereo not shown)	No	133.4	81.9	
O=C1CCC(NS(=O)(=O)c2cccc([N+](=O)[O-])c2)C(=O)N1 (stereo not shown)	Yes*	143.7	80	
Cn1cncc1C(=O)NC1CCC(=O)NC1=O (stereo not shown)		148.0	95.3	> 50
Nc1cccc2c1C(=O)N(C1CCC(=O)NC1=O)C2=O (stereo not shown) [drawing 76]		208.6	96.3	> 50
O=C1NC(=O)c2ccccc21	No	110.8	92.4	
O=C1CCN(CCNC(=O)c2ccccc2)C(=O)N1		47.1	84.9	> 50

From US12564583B2, “Small molecules against cereblon to enhance effector T cell function” (H. LEE MOFFITT CANCER CENTER AND RESEARCH INSTITUTE, INC., priority 2016, dated 2026)
